# Test results from patent publication US20230151003A1, “COMPOUNDS AND METHODS OF USE” (Exelixis, Inc., priority 2020, published 2023).
# Counter-ions that a name gives are not always drawn.
# Biological target: T1, Mer (Homo sapiens, UniProt Q12866)
# T1 construct: host or cells: 293A cells (Thermo Fisher #R70507)
# T1 sequence (Q12866 21-999): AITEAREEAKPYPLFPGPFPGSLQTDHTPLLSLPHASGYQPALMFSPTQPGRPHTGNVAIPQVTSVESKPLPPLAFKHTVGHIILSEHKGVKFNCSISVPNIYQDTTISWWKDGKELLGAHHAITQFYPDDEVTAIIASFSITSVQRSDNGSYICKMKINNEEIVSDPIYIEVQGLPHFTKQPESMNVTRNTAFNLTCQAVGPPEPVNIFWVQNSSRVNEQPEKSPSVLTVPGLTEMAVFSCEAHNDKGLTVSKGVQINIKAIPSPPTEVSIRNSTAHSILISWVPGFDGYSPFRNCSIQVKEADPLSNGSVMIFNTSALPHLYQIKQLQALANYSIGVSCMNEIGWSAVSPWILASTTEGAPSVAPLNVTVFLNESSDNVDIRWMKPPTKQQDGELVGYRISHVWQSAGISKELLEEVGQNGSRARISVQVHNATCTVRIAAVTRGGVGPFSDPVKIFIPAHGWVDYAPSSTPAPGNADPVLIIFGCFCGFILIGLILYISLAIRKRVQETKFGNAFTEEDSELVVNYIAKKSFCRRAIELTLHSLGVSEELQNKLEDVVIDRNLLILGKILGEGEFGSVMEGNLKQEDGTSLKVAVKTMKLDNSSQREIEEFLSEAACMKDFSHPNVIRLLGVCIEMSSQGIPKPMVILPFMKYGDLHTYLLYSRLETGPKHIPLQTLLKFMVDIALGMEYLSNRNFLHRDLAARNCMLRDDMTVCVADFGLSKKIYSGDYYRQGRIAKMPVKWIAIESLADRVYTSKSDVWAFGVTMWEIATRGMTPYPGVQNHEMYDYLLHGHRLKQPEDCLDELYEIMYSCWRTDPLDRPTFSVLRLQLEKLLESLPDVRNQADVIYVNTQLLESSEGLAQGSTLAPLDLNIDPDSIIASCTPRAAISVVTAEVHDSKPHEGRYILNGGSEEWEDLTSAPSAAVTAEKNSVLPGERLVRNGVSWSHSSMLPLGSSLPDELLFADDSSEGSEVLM
# Assay: Mer autophosphorylation ELISA in transient transfected 293A cells
# Format: cell-based
# Settings: Table 3 Cellular Activities; MERTK-transfected 293A cells, phospho-Mer ELISA
# In short: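 293A cells transiently transfected with human MERTK DNA, replated after 24 h, then treated 1 h with 8-point compound dilutions in serum-free medium (0.3% DMSO). Lysates assayed by phospho-Mer sandwich ELISA against phospho-Mer standard; DMSO = 100%, reference inhibitor = 0% activity; IC50 by 4-parameter logistic fit.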
row,IC50,Compound
1,≤ 100 nM,"COc1cnc2c(Oc3ccc(NC(=O)c4cn(CCF)c(C)c(-c5cc(C)cs5)c4=O)cc3F)ccnc2c1 [Compound 328, 1-(2-Fluoroethyl)-N-[3-fluoro-4-[(7-methoxy-1,5-naphthyridin-4-yl)oxy]phenyl]-6-methyl-5-(4-methylthiophen-2-yl)-4-oxopyridine-3-carboxamide]"
2,≤ 100 nM,"COc1cc2nccc(Oc3ccc(NC(=O)c4c(C)ncc(-c5ncc(F)cc5C)c4O)cc3F)c2nc1OC [Compound 200, N-[4-[(6,7-Dimethoxy-1,5-naphthyridin-4-yl)oxy]-3-fluorophenyl]-5-(5-fluoro-3-methylpyridin-2-yl)-4-hydroxy-2-methylpyridine-3-carboxamide]"
3,100 to 300 nM,"COCCOc1cc2nccc(Oc3ccc(NC(=O)c4c(C)n(C)c(C)c(-c5cc6ccccc6o5)c4=O)cc3F)c2nc1OC [Compound 263, 5-(1-Benzofuran-2-yl)-N-[3-fluoro-4-[[6-methoxy-7-(2-methoxyethoxy)-1,5-naphthyridin-4-yl]oxy]phenyl]-1,2,6-trimethyl-4-oxopyridine-3-carboxamide]"
4,≤ 100 nM,"COc1cc2nccc(Oc3ccc(NC(=O)c4nccn(-c5ccc(F)cn5)c4=O)cc3F)c2nc1OC [Compound 246, N-[4-[(6,7Dimethoxy-1,5-naphthyridin-4-yl)oxy]-3-fluorophenyl]-4-(5-fluoropyridin-2-yl)-3-oxopyrazine-2-carboxamide]"
5,≤ 100 nM,"CCOc1ccn(-c2ccc(F)cn2)c(=O)c1C(=O)Nc1ccc(Oc2ccnc3cc(OC)c(OC)nc23)c(F)c1 [Compound 243, N-[4-[(6,7-dimethoxy-1,5-naphthyridin-4-yl)oxy]-3-fluorophenyl]-4-ethoxy-1-(5-fluoropyridin-2-yl)-2-oxopyridine-3-carboxamide]"
6,≤ 100 nM,"COc1cc2nccc(Oc3ccc(NC(=O)c4cc(C(C)=O)c(C)n(-c5ccoc5)c4=O)cc3F)c2nc1OC [Compound 235, 5-Acetyl-N-[4-[(6,7-dimethoxy-1,5-naphthyridin-4-yl)oxy]-3-fluorophenyl]-1-(furan-3-yl)-6-methyl-2-oxopyridine-3-carboxamide]"
7,≤ 100 nM,"COc1cc2nccc(Oc3ccc(NC(=O)c4c5n(cc(-c6ccoc6)c4=O)CCOC5)cc3)c2nc1OC [Compound 310, N-[4-[(6,7-Dimethoxy-1,5-naphthyridin-4-yl)oxy]phenyl]-7-(furan-3-yl)-8-oxo-3,4-dihydro-1H-pyrido[2,1-c][1,4]oxazine-9-carboxamide]"
8,≤ 100 nM,"CCc1c(C(=O)Nc2ccc(Oc3ccnc4cc(OC)c(OC)nc34)c(F)c2)c(=O)c(-c2ccco2)c(C)n1C [Compound 324, N-[4-[(6,7-Dimethoxy-1,5-naphthyridin-4-yl)oxy]-3-fluorophenyl]-2-ethyl-5-(furan-2-yl)-1,6-dimethyl-4-oxopyridine-3-carboxamide]"
9,≤ 100 nM,"COc1cc2nccc(Oc3ccc(NC(=O)c4c5n(cc(-c6cc(C)cs6)c4=O)CCOC5)cc3)c2nc1OC [Compound 303, N-[4-[(6,7-Dimethoxy-1,5-naphthyridin-4-yl)oxy]phenyl]-7-(4-methylthiophen-2-yl)-8-oxo-3,4-dihydro-1H-pyrido[2,1-c][1,4]oxazine-9-carboxamide]"
10,≤ 100 nM,"COc1cnc2c(Oc3ccc(NC(=O)c4ccc(C)n(-c5ncc(F)cc5C)c4=O)cc3F)ccnc2c1 [Compound 52, N-[3-Fluoro-4-[(7-methoxy-1,5-naphthyridin-4-yl)oxy]phenyl]-1-(5-fluoro-3-methylpyridin-2-yl)-6-methyl-2-oxopyridine-3-carboxamide]"
11,≤ 100 nM,"COc1cc2nccc(Oc3ccc(NC(=O)c4nnc(C)c(-c5ccc(F)cn5)c4OC)cc3F)c2nc1OC [Compound 215, N-[4-[(6,7-Dimethoxy-1,5-naphthyridin-4-yl)oxy]-3-fluorophenyl]-5-(5-fluoropyridin-2-yl)-4-methoxy-6-methylpyridazine-3-carboxamide]"
12,≤ 100 nM,"COc1cc2nccc(Oc3ccc(NC(=O)c4ncc(C)n(-c5ccc(F)cn5)c4=O)cc3F)c2nc1OC [Compound 219, N-[4-[(6,7-Dimethoxy-1,5-naphthyridin-4-yl)oxy]-3-fluorophenyl]-4-(5-fluoropyridin-2-yl)-5-methyl-3-oxopyrazine-2-carboxamide]"
13,≤ 100 nM,"Cc1ccc(C(=O)Nc2ccc(Oc3ccnc4cnc(Cl)cc34)c(F)c2)c(=O)n1-c1ccc(F)cn1 [Compound 54A, N-[4-[(6-Chloro-1,7-naphthyridin-4-yl)oxy]-3-fluorophenyl]-1-(5-fluoropyridin-2-yl)-6-methyl-2-oxopyridine-3-carboxamide]"
14,≤ 100 nM,"COCCOc1cc2nccc(Oc3ccc(NC(=O)c4ccc(C)n(-c5ccc(F)cn5)c4=O)cc3F)c2nc1OC [Compound 50, N-[3-Fluoro-4-[[6-methoxy-7-(2-methoxyethoxy)-1,5-naphthyridin-4-yl]oxy]phenyl]-1-(5-fluoropyridin-2-yl)-6-methyl-2-oxopyridine-3-carboxamide]"
15,≤ 100 nM,"COc1cc2nccc(Oc3ccc(NC(=O)c4c(C)ncc(-c5ccccn5)c4O)cc3F)c2nc1OC [Compound 69, N-[4-[(6,7-Dimethoxy-1,5-naphthyridin-4-yl)oxy]-3-fluorophenyl]-4-hydroxy-2-methyl-5-pyridin-2-ylpyridine-3-carboxamide]"
16,100 to 300 nM,"COc1cc2nccc(Oc3ccc(NC(=O)c4c(C)n(C)c(C)c(-c5cc6ccccc6o5)c4=O)cc3F)c2nc1OC [Compound 261, 5-(1-Benzofuran-2-yl)-N-[4-[(6,7-dimethoxy-1,5-naphthyridin-4-yl)oxy]-3-fluorophenyl]-1,2,6-trimethyl-4-oxopyridine-3-carboxamide]"
17,≤ 100 nM,"COc1cc2nccc(Oc3ccc(NC(=O)c4ccc(C)n(-c5ccc(F)c(C)n5)c4=O)cc3F)c2nc1OC [Compound 227, N-[4-[(6,7-Dimethoxy-1,5-naphthyridin-4-yl)oxy]-3-fluorophenyl]-1-(5-fluoro-6-methylpyridin-2-yl)-6-methyl-2-oxopyridine-3-carboxamide hydrochloride]"
18,≤ 100 nM,"CCOc1ccn(-c2ccc(F)cn2)c(=O)c1C(=O)Nc1ccc(Oc2ccnc3cc(OC)c(OC)nc23)cc1 [Compound 244, N-[4-[(6,7-Dimethoxy-1,5-naphthyridin-4-yl)oxy]phenyl]-4-ethoxy-1-(5-fluoropyridin-2-yl)-2-oxopyridine-3-carboxamide]"
19,≤ 100 nM,"COc1cc2nccc(Oc3ccc(NC(=O)c4c(C)n(C)cc(-c5ccc(F)cn5)c4=O)cc3)c2nc1OC [Compound 72, N-[4-[(6,7-Dimethoxy-1,5-naphthyridin-4-yl)oxy]phenyl]-5-(5-fluoropyridin-2-yl)-1,2-dimethyl-4-oxopyridine-3-carboxamide]"
20,300 to 1000 nM,"COc1cc2nccc(Oc3ccc(NC(=O)c4cccn(-c5ccnc(O)c5)c4=O)cc3F)c2nc1OC [Compound 248, N-[4-[(6,7-Dimethoxy-1,5-naphthyridin-4-yl)oxy]-3-fluorophenyl]-1-(2-hydroxypyridin-4-yl)-2-oxopyridine-3-carboxamide hydrochloride]"
21,≤ 100 nM,"COc1cc2nccc(Oc3ccc(NC(=O)c4c5n(cc(-c6cccs6)c4=O)CCOC5)cc3F)c2nc1OC [Compound 309, N-[4-[(6,7-Dimethoxy-1,5-naphthyridin-4-yl)oxy]-3-fluorophenyl]-8-oxo-7-thiophen-2-yl-3,4-dihydro-1H-pyrido[2,1-c][1,4]oxazine-9-carboxamide]"
22,≤ 100 nM,"COc1cnc2c(Oc3ccc(NC(=O)c4cc(C(C)=O)c(C)n(-c5ccoc5)c4=O)cc3F)ccnc2c1 [Compound 240, 5-Acetyl-N-[3-fluoro-4-[(7-methoxy-1,5-naphthyridin-4-yl)oxy]phenyl]-1-(furan-3-yl)-6-methyl-2-oxopyridine-3-carboxamide]"
